Measurements published in patent US8772448B2, “Peptides immunoreactive with autoantibodies from patients suffering from rheumatoid arthritis” (Stichting Voor de Technische Wetenschappen, priority 1996, dated 2014).
Where no end group is shown, it is not given here. [ ]: non-standard residue; d: D form. Cit = NC(=O)NCCC[C@H](N)C(=O)O

Legend:
Assay type in all cases: binding, human
[1] = tested on: autoimmune antibodies in sera from patients suffering from rheumatoid arthritis; test: ELISA of coupled peptides with RA sera; details: for immunological reactivity in ELISA: RA sera; for RA sera (%) positive / RA sera: number of positive sera: n = 134 RA sera, positive = OD450 of 0.2 after deduction of blank; for RA sera: number of positive sera: sera diluted 200 times
Method: (§1) Detection by Means of ELISA
Via an N-oxysuccinimide surface the peptides were covalently coupled to the wells of 96-well microtitre plates (Costar amide binding plates) in an amount of 1 ? g/well. Coupling took place for 16 hours at 4EC and pH 9.0. The plates were blocked for 1 hour with 2% bovine serum albumin. The sera were diluted 200 times in a diluent (0.3% BSA, 350 mM NaCl, 10 mM Tris-HCl pH 7.6, 1% vol./vol. Triton X-100, 0.5% w./vol. Na-deoxycholate, 0.1% SDS) supplemented with 10% normal rabbit serum, and incubated for one hour at room temperature. After washing the plates (3 times with PBS containing 0.05 by vol. of Tween® 20), 100 ? l of antihuman IgG conjugated with peroxidase (Dako P214), 1000 times diluted in dilution buffer, was added to the wells. After incubation for 1 hour at room temperature, the plates were washed 3 times with PBS/Tween®, and bound antibodies were detected with tetramethyl benzidine as a substrate. After 10 minutes the reaction was stopped by adding 100 ? l of 2 M sulphuric acid per well. Readout occurred at 450 nm. Sera having an OD450 of 0.2, after deduction of the blank for the respective serum (a well without a coupled peptide), were considered to be positive. […]

[2] = tested on: antibodies in pSS (primary Sjögren's syndrome) sera; test: ELISA of coupled peptides with pSS sera; details: n = 50
Method: as §1
(§2) Via an N-oxysuccinimide surface the peptides were covalently coupled to the wells of 96-well microtitre plates (Costar amide binding plates) in an amount of 1 ? g/well. Coupling took place for 16 hours at 4EC and pH 9.0. The plates were blocked for 1 hour with 2% bovine serum albumin. The sera were diluted 200 times in a diluent (0.3% BSA, 350 mM NaCl, 10 mM Tris-HCl pH 7.6, 1% vol./vol. Triton X-100, 0.5% w./vol. Na-deoxycholate, 0.1% SDS) supplemented with 10% normal rabbit serum, and incubated for one hour at room temperature. After washing the plates (3 times with PBS containing 0.05 by vol. of Tween® 20), 100 ? l of antihuman IgG conjugated with peroxidase (Dako P214), 1000 times diluted in dilution buffer, was added to the wells. After incubation for 1 hour at room temperature, the plates were washed 3 times with PBS/Tween®, and bound antibodies were detected with tetramethyl benzidine as a substrate. After 10 minutes the reaction was stopped by adding 100 ? l of 2 M sulphuric acid per well. Readout occurred at 450 nm. Sera having an OD450 of 0.2, after deduction of the blank for the respective serum (a well without a coupled peptide), were considered to be positive.

[3] = tested on: antibodies in control sera from patients suffering from rheumatic diseases other than RA; test: ELISA of coupled peptides with control sera; details: n = 154; rheumatic diseases other than RA
Method: as §1, §2
In total, 288 sera from patients suffering from rheumatoid diseases were used, 132 of which were from patients suffering from rheumatoid arthritis.

[4] = tested on: antibodies in PM/DM (polymyositis/dermatomyositis) sera; test: ELISA of coupled peptides with PM/DM sera; details: n = 50
Method: as §1, §2

[5] = tested on: antibodies in SLE (systemic lupus erythematosus) sera; test: ELISA of coupled peptides with SLE sera; details: n = 50
Method: as §1, §2

[6] = tested on: antibodies in SSC (systemic scleroderma) sera; test: ELISA of coupled peptides with SSC sera; details: n = 50
Method: as §1, §2

Sequence	immunological reactivity in ELISA [1]	pSS (%) positive [2] [%]	pSS: number of positive sera [2]	control sera (%) positive [3] [%]	control sera: number of positive sera [3]	RA sera (%) positive [1] [%]	RA sera: number of positive sera [1]	PM/DM (%) positive [4] [%]	PM/DM: number of positive sera [4]	SLE: number of positive sera [5]	SSC (%) positive [6] [%]	SSC: number of positive sera [6]	SLE (%) positive [5] [%]
ESSHGWTGPSTRGRQGSRHE [nf, reference compound]	not	–	–	–	–	–	–	–	–	–	–	–	–
SHQESTAGRSRGRSGRSGS [cfA, reference compound]	did not seem to be immunologically reactive	–	–	–	–	–	–	–	–	–	–	–	–
SHQESTEGRSRGRSGRSGS [cfE, reference compound]	did not seem to be immunologically reactive	–	–	–	–	–	–	–	–	–	–	–	–
SHQESTQGRSRGRSGRSGS [cfQ, reference compound]	did not seem to be immunologically reactive	–	–	–	–	–	–	–	–	–	–	–	–
SHQESTRGRSRGRSGRSGS (Derived from known cDNA sequences of human profilaggrin) [cf, reference compound]	did not seem to be immunologically reactive	–	–	–	–	–	–	–	–	–	–	–	–
SHQESTRGRSRGRSGXSGS (SHQESTRGRSRGRSG[Cit]SGS-NH2; N-terminus assumed; SMILES C[C@@H](O)[C@H](NC(=O)[C@H](CO)NC(=O)[C@H](CCC(=O)O)NC(=O)[C@H](CCC(N)=O)NC(=O)[C@H](Cc1c[nH]cn1)NC(=O)[C@@H](N)CO)C(=O)N[C@@H](CCCNC(=N)N)C(=O)NCC(=O)N[C@@H](CCCNC(=N)N)C(=O)N[C@@H](CO)C(=O)N[C@@H](CCCNC(=N)N)C(=O)NCC(=O)N[C@@H](CCCNC(=N)N)C(=O)N[C@@H](CO)C(=O)NCC(=O)N[C@@H](CCCNC(N)=O)C(=O)N[C@@H](CO)C(=O)NCC(=O)N[C@@H](CO)C(N)=O) [cfc5]	–	4	2	0.6	1	48	64	2	1	0	2	1	–
SHQESTRGRSRGXSGRSGS (SHQESTRGRSRG[Cit]SGRSGS-NH2; N-terminus assumed; SMILES C[C@@H](O)[C@H](NC(=O)[C@H](CO)NC(=O)[C@H](CCC(=O)O)NC(=O)[C@H](CCC(N)=O)NC(=O)[C@H](Cc1c[nH]cn1)NC(=O)[C@@H](N)CO)C(=O)N[C@@H](CCCNC(=N)N)C(=O)NCC(=O)N[C@@H](CCCNC(=N)N)C(=O)N[C@@H](CO)C(=O)N[C@@H](CCCNC(=N)N)C(=O)NCC(=O)N[C@@H](CCCNC(N)=O)C(=O)N[C@@H](CO)C(=O)NCC(=O)N[C@@H](CCCNC(=N)N)C(=O)N[C@@H](CO)C(=O)NCC(=O)N[C@@H](CO)C(N)=O) [cfc4]	–	–	0	1.3	2	24	32	–	0	0	–	0	–
SHQESTRGRSXGRSGRSGS (SHQESTRGRS[Cit]GRSGRSGS-NH2; N-terminus assumed; SMILES C[C@@H](O)[C@H](NC(=O)[C@H](CO)NC(=O)[C@H](CCC(=O)O)NC(=O)[C@H](CCC(N)=O)NC(=O)[C@H](Cc1c[nH]cn1)NC(=O)[C@@H](N)CO)C(=O)N[C@@H](CCCNC(=N)N)C(=O)NCC(=O)N[C@@H](CCCNC(=N)N)C(=O)N[C@@H](CO)C(=O)N[C@@H](CCCNC(N)=O)C(=O)NCC(=O)N[C@@H](CCCNC(=N)N)C(=O)N[C@@H](CO)C(=O)NCC(=O)N[C@@H](CCCNC(=N)N)C(=O)N[C@@H](CO)C(=O)NCC(=O)N[C@@H](CO)C(N)=O) [cfc3]	–	2	1	0.6	2	28	37	2	1	0	–	0	–
SHQESTRGXSRGRSGRSGS (SHQESTRG[Cit]SRGRSGRSGS-NH2; N-terminus assumed; SMILES C[C@@H](O)[C@H](NC(=O)[C@H](CO)NC(=O)[C@H](CCC(=O)O)NC(=O)[C@H](CCC(N)=O)NC(=O)[C@H](Cc1c[nH]cn1)NC(=O)[C@@H](N)CO)C(=O)N[C@@H](CCCNC(=N)N)C(=O)NCC(=O)N[C@@H](CCCNC(N)=O)C(=O)N[C@@H](CO)C(=O)N[C@@H](CCCNC(=N)N)C(=O)NCC(=O)N[C@@H](CCCNC(=N)N)C(=O)N[C@@H](CO)C(=O)NCC(=O)N[C@@H](CCCNC(=N)N)C(=O)N[C@@H](CO)C(=O)NCC(=O)N[C@@H](CO)C(N)=O) [cfc2]	–	2	1	2.6	4	20	27	2	1	1	–	0	2
SHQESTXGRSRGRSGXSGS (SHQEST[Cit]GRSRGRSG[Cit]SGS-NH2; N-terminus assumed; SMILES C[C@@H](O)[C@H](NC(=O)[C@H](CO)NC(=O)[C@H](CCC(=O)O)NC(=O)[C@H](CCC(N)=O)NC(=O)[C@H](Cc1c[nH]cn1)NC(=O)[C@@H](N)CO)C(=O)N[C@@H](CCCNC(N)=O)C(=O)NCC(=O)N[C@@H](CCCNC(=N)N)C(=O)N[C@@H](CO)C(=O)N[C@@H](CCCNC(=N)N)C(=O)NCC(=O)N[C@@H](CCCNC(=N)N)C(=O)N[C@@H](CO)C(=O)NCC(=O)N[C@@H](CCCNC(N)=O)C(=O)N[C@@H](CO)C(=O)NCC(=O)N[C@@H](CO)C(N)=O) [cfc9]	–	4	2	0.6	1	42	57	–	0	0	–	0	–
SHQESTXGRSRGXSGRSGS (SHQEST[Cit]GRSRG[Cit]SGRSGS-NH2; N-terminus assumed; SMILES C[C@@H](O)[C@H](NC(=O)[C@H](CO)NC(=O)[C@H](CCC(=O)O)NC(=O)[C@H](CCC(N)=O)NC(=O)[C@H](Cc1c[nH]cn1)NC(=O)[C@@H](N)CO)C(=O)N[C@@H](CCCNC(N)=O)C(=O)NCC(=O)N[C@@H](CCCNC(=N)N)C(=O)N[C@@H](CO)C(=O)N[C@@H](CCCNC(=N)N)C(=O)NCC(=O)N[C@@H](CCCNC(N)=O)C(=O)N[C@@H](CO)C(=O)NCC(=O)N[C@@H](CCCNC(=N)N)C(=O)N[C@@H](CO)C(=O)NCC(=O)N[C@@H](CO)C(N)=O) [cfc8]	–	2	1	0.6	1	41	55	2	1	0	–	0	–
TGPSTRGRQGSXHE (TGPSTRGRQGS[Cit]HE-NH2; N-terminus assumed; SMILES C[C@@H](O)[C@H](N)C(=O)NCC(=O)N1CCC[C@H]1C(=O)N[C@@H](CO)C(=O)N[C@H](C(=O)N[C@@H](CCCNC(=N)N)C(=O)NCC(=O)N[C@@H](CCCNC(=N)N)C(=O)N[C@@H](CCC(N)=O)C(=O)NCC(=O)N[C@@H](CO)C(=O)N[C@@H](CCCNC(N)=O)C(=O)N[C@@H](Cc1c[nH]cn1)C(=O)N[C@@H](CCC(=O)O)C(N)=O)[C@@H](C)O) [nfc1]	–	–	–	–	–	10	–	–	–	–	–	–	–
